Data taken from publication PMC6100240, “Discovery of 2-(4-Substituted-piperidin/piperazine-1-yl)-N-(5-cyclopropyl-1H-pyrazol-3-yl)-quinazoline-2,4-diamines as PAK4 Inhibitors with Potent A549 Cell Proliferation, Migration, and Invasion Inhibition Activity” (Molecules : A Journal of Synthetic Chemistry and Natural …, 2018).
pIC50: −log10 of the molar value.

How the values were obtained:
PAK4 = target: T1, PAK4 (Homo sapiens, UniProt O96013); experiment: PAK4 HTRF kinase assay; type: biochemical
T1 construct: purchased Sigma-Aldrich
T1 sequence (O96013 whole entry): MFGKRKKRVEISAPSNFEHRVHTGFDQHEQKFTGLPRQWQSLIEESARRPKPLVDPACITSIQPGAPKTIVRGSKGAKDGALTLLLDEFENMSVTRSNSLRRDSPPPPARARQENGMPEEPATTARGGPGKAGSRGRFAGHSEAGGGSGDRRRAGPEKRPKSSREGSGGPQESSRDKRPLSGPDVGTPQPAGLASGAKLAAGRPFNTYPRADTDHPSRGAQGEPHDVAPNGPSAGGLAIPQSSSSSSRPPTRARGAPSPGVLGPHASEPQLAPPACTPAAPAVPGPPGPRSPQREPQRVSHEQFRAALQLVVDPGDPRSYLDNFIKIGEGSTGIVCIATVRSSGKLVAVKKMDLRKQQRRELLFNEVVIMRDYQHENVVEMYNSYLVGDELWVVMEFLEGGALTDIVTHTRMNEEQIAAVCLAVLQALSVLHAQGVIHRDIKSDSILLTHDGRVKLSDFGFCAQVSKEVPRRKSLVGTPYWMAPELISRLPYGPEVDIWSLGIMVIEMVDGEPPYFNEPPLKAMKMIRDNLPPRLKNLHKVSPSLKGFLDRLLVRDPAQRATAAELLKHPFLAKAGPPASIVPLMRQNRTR

HT1080 = experiment: MTT cell proliferation assay, HT1080; type: cell-based, human; conditions: for pIC50: Homo sapiens, HT-1080, 50% cell growth inhibition after 24 h of drug exposure, MTT assay; for Activity against HT1080 (off-target check): growth not dependent on PAK4
Protocol: (§1) Meanwhile, the tumor cell line HT1080, whose growth is not dependent on PAK4, was used to test the potential off-target effects of the potent PAK4 inhibitors.
(§2) The human pulmonary carcinoma cell line A549 and the human fibrosarcoma cell line HT1080 were cultured in RPMI-1640 medium containing 10% fetal bovine serum (FBS), at 37 °C in a humidified atmosphere containing 5% CO2.
(§3) The in vitro antiproliferative activity of some of the target compounds was determined by the MTT assay (Amresco, Seattle, WA, USA). A suspension of 100 µL human cancer cells (5 × 10^4/mL) was plated in a 96-well cell culture plate and incubated with 5% CO2 at 37 °C for 24 h. Then cells were exposed to various concentrations of compounds and further cultured for 24 h. After that, MTT was added and absorbance was measured at 490 nm using a EL × 800 microplate reader (BioTek, Winooski, VT, USA). Dose-response curves were plotted to determine the IC50 values using GraphPad Prism 5.0. Each IC50 value was expressed as mean ± standard deviation.

A549 cell line = experiment: MTT cell proliferation assay, A549; type: cell-based; conditions: Homo sapiens, 50% cell growth inhibition after 24 h of drug exposure
Protocol: as §1, §2, §3

[1] = tested on: human gastric cancer cells; set-up: method as in PMID 22085492; conditions: cited from earlier work
A549 cells [2] = experiment: Matrigel cell invasion assay; type: cell-based, human; conditions: A549, Matrigel chamber, 24 h
Protocol: (§4) We next examined the effects of compound 8d on the cycle progression of A549. Cells were treated with compound 8d at varying concentrations (1.0, 3.0, 9.0 μM) and vehicle (dimethyl sulfoxide−DMSO) for 24 h, and subjected to flow cytometry analysis to determine the distribution of cells in various phases of the cell cycle. […] PAK4 activity is involved in cytoskeleton dynamics and cancer cell migration and invasion; therefore, the inhibitory effect of 8d on A549 cell migration and invasion were analyzed.
(§5) Cell migration assays were evaluated in transwell chambers (Corning Incorporated, Corning, NY, USA). Cell invasion assays were evaluated in Matrigel invasion chambers (Becton-Dickinson). First, 0.5 × 10^5 tumor cells were plated in the top chamber with RPMI-1640 medium without FBS. Test compound was added to the bottom chamber with 500 µL medium containing 20% FBS. After incubation for 24 h at 37 °C, the cells were fixed in 100% methanol and stained with 0.1% crystal violet, then washed with PBS; the cells that had not migrated from the top surface of the filters were removed with cotton. Migrated cells were quantified by counting them in three randomly selected fields on the diameter under a microscope at 200× magnification

A549 cells [3] = experiment: Transwell cell migration assay; type: cell-based, human; conditions: 24 h
Protocol: as §4, §5

pIC50 (PAK4)	melting point	SMILES	also measured
6.51	184.4 to 186.7 °C	Clc1ccc2nc(N3CCN(c4ccccn4)CC3)nc(Nc3cc(C4CC4)[nH]n3)c2c1 [Compound 8a, 6-Chloro-N-(5-cyclopropyl-1H-pyrazol-3-yl)-2-(4-(pyridin-2-yl)piperazin-1-yl)quinazolin-4-amine]	–
6.52	237.1 to 239.5 °C	COc1ccc(N2CCN(c3nc(Nc4cc(C5CC5)[nH]n4)c4cc(Cl)ccc4n3)CC2)cc1 [Compound 7g, 6-Chloro-N-(5-cyclopropyl-1H-pyrazol-3-yl)-2-(4-(4-methoxyphenyl)piperazin-1-yl)quinazolin-4-amine]	–
6.62	204.9 to 207.5 °C	Cc1ccc(N2CCN(c3nc(Nc4cc(C5CC5)[nH]n4)c4cc(Cl)ccc4n3)CC2)cc1 [Compound 7b, 6-Chloro-N-(5-cyclopropyl-1H-pyrazol-3-yl)-2-(4-(p-tolyl)piperazin-1-yl)quinazolin-4-amine]	–
7.00	248.7 to 251.9 °C	Clc1ccc2nc(N3CCN(c4ccc(Br)cc4)CC3)nc(Nc3cc(C4CC4)[nH]n3)c2c1 [Compound 7c, 2-(4-(4-Bromophenyl)piperazin-1-yl)-6-chloro-N-(5-cyclopropyl-1H-pyrazol-3-yl)quinazolin-4-amine]	–
6.80	250 to 251.8 °C	Clc1ccc(N2CCN(c3nc(Nc4cc(C5CC5)[nH]n4)c4cc(Cl)ccc4n3)CC2)cc1 [Compound 7e, 6-Chloro-2-(4-(4-chlorophenyl)piperazin-1-yl)-N-(5-cyclopropyl-1H-pyrazol-3-yl)quinazolin-4-amine]	–
6.16	199.9 to 201.8 °C	COc1cccc(N2CCN(c3nc(Nc4cc(C5CC5)[nH]n4)c4cc(Cl)ccc4n3)CC2)c1 [Compound 7h, 6-Chloro-N-(5-cyclopropyl-1H-pyrazol-3-yl)-2-(4-(3-methoxyphenyl)piperazin-1-yl)quinazolin-4-amine]	–
6.70	228.8 to 231 °C	Fc1ccc(N2CCN(c3nc(Nc4cc(C5CC5)[nH]n4)c4cc(Cl)ccc4n3)CC2)cc1 [Compound 7i, 6-Chloro-N-(5-cyclopropyl-1H-pyrazol-3-yl)-2-(4-(4-fluorophenyl)piperazin-1-yl)quinazolin-4-amine]	–
7.06	263 to 265.4 °C	Cc1ccc(N2CCN(c3nc(Nc4cc(C5CC5)[nH]n4)c4cc(Cl)ccc4n3)CC2)nc1 [Compound 8c, 6-Chloro-N-(5-cyclopropyl-1H-pyrazol-3-yl)-2-(4-(5-methylpyridin-2-yl)piperazin-1-yl)quinazolin-4-amine]	–
7.22	270.5 to 272.8 °C	Clc1ccc2nc(N3CCN(c4ccc(Br)cn4)CC3)nc(Nc3cc(C4CC4)[nH]n3)c2c1 [Compound 8d, 2-(4-(5-Bromopyridin-2-yl)piperazin-1-yl)-6-chloro-N-(5-cyclopropyl-1H-pyrazol-3-yl)quinazolin-4-amine]	pIC50 (HT1080): 4.67; Activity against HT1080 (off-target check) (HT1080): negligible activity; pIC50 (A549 cell line): 5.33; Effect on cell invasion (A549 cells [2]): decreased the migration and invasion potential; Effect on cell migration (A549 cells [3]): decreased the migration and invasion potential

The remaining lines, values behind:

SMILES	pIC50 (PAK4)	melting point	also measured
Clc1ccc2nc(N3CCC(N4CCOCC4)CC3)nc(Nc3cc(C4CC4)[nH]n3)c2c1 [Compound 6b]	6.25	214.3 to 216.6 °C	–
Clc1ccc2nc(N3CCN(c4ncccn4)CC3)nc(Nc3cc(C4CC4)[nH]n3)c2c1 [Compound 9a, 6-Chloro-N-(5-cyclopropyl-1H-pyrazol-3-yl)-2-(4-(pyrimidin-2-yl)piperazin-1-yl)quinazolin-4-amine]	6.42	249.3 to 250.5 °C	–
Clc1ccc2nc(N3CCC(N4CCCCC4)CC3)nc(Nc3cc(C4CC4)[nH]n3)c2c1 [Compound 6a, ([1,4′-Bipiperidin]-1′-yl)-6-chloro-N-(5-cyclopropyl-1H-pyrazol-3-yl)quinazolin-4-amine]	6.36	208.3 to 209.6 °C	–
Clc1ccc2nc(N3CCN(c4ncc(Br)cn4)CC3)nc(Nc3cc(C4CC4)[nH]n3)c2c1 [Compound 9c, 2-(4-(5-Bromopyrimidin-2-yl)piperazin-1-yl)-6-chloro-N-(5-cyclopropyl-1H-pyrazol-3-yl)quinazolin-4-amine]	7.17	280.6 to 282.7 °C	pIC50 (HT1080): 4.41; Activity against HT1080 (off-target check) (HT1080): negligible activity; pIC50 (A549 cell line): 5.32
FC(F)(F)c1ccc(N2CCN(c3nc(Nc4cc(C5CC5)[nH]n4)c4cc(Cl)ccc4n3)CC2)nc1 [Compound 8e, 6-Chloro-N-(5-cyclopropyl-1H-pyrazol-3-yl)-2-(4-(5-(trifluoromethyl)pyridin-2-yl)piperazin-1-yl)quinazol-in-4-amine]	6.66	247.6 to 259.6 °C	–
Cc1cnc(N2CCN(c3nc(Nc4cc(C5CC5)[nH]n4)c4cc(Cl)ccc4n3)CC2)nc1 [Compound 9b, 6-Chloro-N-(5-cyclopropyl-1H-pyrazol-3-yl)-2-(4-(5-methylpyrimidin-2-yl)piperazin-1-yl)quinazolin-4-amine]	6.96	262.8 to 264.7 °C	–
FC(F)(F)c1ccc(N2CCN(c3nc(Nc4cc(C5CC5)[nH]n4)c4cc(Cl)ccc4n3)CC2)cc1 [Compound 7d, 6-Chloro-N-(5-cyclopropyl-1H-pyrazol-3-yl)-2-(4-(4-(trifluoromethyl)phenyl)piperazin-1-yl)quinazolin-4-amine]	6.19	256.4 to 257.8 °C	–
Clc1cccc(N2CCN(c3nc(Nc4cc(C5CC5)[nH]n4)c4cc(Cl)ccc4n3)CC2)c1 [Compound 7f, 6-Chloro-2-(4-(3-chlorophenyl)piperazin-1-yl)-N-(5-cyclopropyl-1H-pyrazol-3-yl)quinazolin-4-amine]	6.31	229.9 to 232.6 °C	–
Clc1ccc2nc(N3CCN(c4ccccc4)CC3)nc(Nc3cc(C4CC4)[nH]n3)c2c1 [Compound 7a, 6-Chloro-N-(5-cyclopropyl-1H-pyrazol-3-yl)-2-(4-phenylpiperazin-1-yl)quinazolin-4-amine]	6.07	239.5 to 240.8 °C	–
COc1ccnc(N2CCN(c3nc(Nc4cc(C5CC5)[nH]n4)c4cc(Cl)ccc4n3)CC2)c1 [Compound 8b, 6-Chloro-N-(5-cyclopropyl-1H-pyrazol-3-yl)-2-(4-(4-methoxypyridin-2-yl)piperazin-1-yl)quinazolin-4-amine]	6.42	210.3 to 211.6 °C	–
COc1cccc(Nc2nc(NCC3CCCO3)c3ccccc3n2)c1 (centres unmarked) [LCH-7749944, N^2-(3-methoxyphenyl)-N^4-((tetrahydrofuran-2-yl)methyl)quinazoline-2,4-diamine]	–	–	Effect on proliferation, migration, and invasion [1]: effectively suppressed
